Test results: ChEMBL document CHEMBL3865850, “Discovery of Potent and Selective Leads against Toxoplasma gondii Dihydrofolate Reductase via Structure-Based Design” (ACS Med Chem Lett, 2016)

Experiments:
Dihydrofolate reductase = target: T1, Dihydrofolate reductase (Homo sapiens, UniProt P00374); experiment: Inhibition of recombinant human DHFR expressed in Escherichia coli preincubated for 15 mins followed by addition of DHF as substrate and NADPH measured after 60 mins by resazurin/diaphorase coupled assay
T1 sequence (P00374 whole entry): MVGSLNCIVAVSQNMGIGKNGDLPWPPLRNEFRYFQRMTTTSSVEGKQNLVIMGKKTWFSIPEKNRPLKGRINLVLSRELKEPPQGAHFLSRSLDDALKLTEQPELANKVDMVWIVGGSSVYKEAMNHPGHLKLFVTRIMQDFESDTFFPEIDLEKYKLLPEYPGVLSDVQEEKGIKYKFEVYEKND

[1] = Selectivity ratio of IC50 for human DHFR to IC50 for Toxoplasma gondii DHFR
[2] = target: T2, Bifunctional dihydrofolate reductase-thymidylate synthase (Toxoplasma gondii, UniProt Q07422); experiment: Inhibition of Toxoplasma gondii TS-DHFR expressed in Escherichia coli BL21 preincubated for 15 mins followed by addition of DHF as substrate and NADPH measured after 60 mins by resazurin/diaphorase coupled assay; assay type: cell-free
T2 sequence (Q07422 whole entry): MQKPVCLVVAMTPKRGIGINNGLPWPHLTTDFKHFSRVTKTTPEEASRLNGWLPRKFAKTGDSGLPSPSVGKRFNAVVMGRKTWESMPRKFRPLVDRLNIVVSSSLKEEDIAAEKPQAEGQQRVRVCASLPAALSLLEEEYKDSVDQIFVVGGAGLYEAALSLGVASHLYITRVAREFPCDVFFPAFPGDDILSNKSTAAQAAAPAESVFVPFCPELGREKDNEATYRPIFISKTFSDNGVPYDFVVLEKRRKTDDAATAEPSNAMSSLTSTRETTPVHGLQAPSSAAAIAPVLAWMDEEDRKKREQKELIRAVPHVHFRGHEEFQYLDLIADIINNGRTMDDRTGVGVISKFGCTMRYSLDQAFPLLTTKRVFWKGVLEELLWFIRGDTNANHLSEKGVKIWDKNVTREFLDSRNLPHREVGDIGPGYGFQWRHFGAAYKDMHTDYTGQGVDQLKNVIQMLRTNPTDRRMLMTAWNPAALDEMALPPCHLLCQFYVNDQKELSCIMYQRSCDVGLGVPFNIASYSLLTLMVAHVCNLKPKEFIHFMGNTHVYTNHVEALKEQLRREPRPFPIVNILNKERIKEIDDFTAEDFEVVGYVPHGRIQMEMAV

| SMILES | IC50 (Dihydrofolate reductase) [µM] | Ratio IC50 [1] | IC50 [2] [µM] |
| --- | --- | --- | --- |
| Nc1ncc(CN2CCN(c3cccc(C(F)(F)F)c3)CC2)c(N)n1 | 9.2 | 0.12 | 80 |
| COc1ccc(-c2c[nH]c3nc(N)nc(OC(C)C)c23)cc1C(F)(F)F | > 10 | – | > 10 |
| Nc1nc2[nH]c(-c3cccc(Cl)c3)cc2c(=O)[nH]1 | > 10 | – | > 10 |
| Cn1c(-c2cccc(Cl)c2)cc2c(N)nc(N)nc21 | > 10 | – | > 10 |
| Cc1nc(N)nc(N)c1C(=O)N1CCN(c2cccc(-c3ccccc3)c2)CC1 | > 10 | > 4 | 2.4 |
| Cc1nc(N)nc(N)c1CN1CCN(c2cccc(-c3cccc(C#N)c3)c2)CC1 | 0.92 | 4.7 | 0.2 |
| Cn1cc(-c2c(N)nc(N)nc2C2CC2)c2ccccc21 | 2.8 | 6.1 | 0.46 |
| Nc1ncc(Cn2ccc3c(-c4ccc(C(F)(F)F)cc4)cccc32)c(N)n1 | > 10 | > 3.5 | 2.7 |
| Nc1ncc(N2CCN(c3ccc(Cl)c(Cl)c3)CC2)c(N)n1 | 0.092 | 10 | 0.017 |
| Cc1nc(N)nc(N)c1C(=O)N1CCN(c2cccc(-c3cccc(C#N)c3)c2)CC1 | > 10 | > 3.3 | 3 |
| Nc1ncc(CN2CCN(c3cc(Cl)ccc3OCc3cccc(C(F)(F)F)c3)CC2)c(N)n1 | > 75 | > 80 | 0.95 |
| Cc1nc(N)nc(N)c1CN1CCN(c2cc(Cl)ccc2-c2ccccn2)CC1 | 2.1 | 6.5 | 0.37 |
| Cc1nc(N)nc(N)c1C(=O)N1CCN(c2cc(Cl)ccc2-c2ccccn2)CC1 | > 10 | – | > 10 |
| Nc1ncc(CN2CCCN(C(=O)c3cccc(C(F)(F)F)c3)CC2)c(N)n1 | > 10 | – | > 10 |
| Nc1nc(Cl)c2cc(-c3cccc(Cl)c3)[nH]c2n1 | 4.2 | < 1 | > 10 |
| Cc1nc(N)nc(N)c1CN1CCN(c2cccc(-c3ccccc3)c2)CC1 | 1.1 | 1 | 1.1 |
| Nc1ncc(Cn2cc(-c3cccc(C(F)(F)F)c3)c3ccccc32)c(N)n1 | > 10 | > 10 | 0.98 |
| Nc1ncc(Cn2cc(-c3ccc(F)c(F)c3)c3cnccc32)c(N)n1 | > 10 | – | > 10 |
| Nc1ncc(Cn2cc(-c3cccc(Cl)c3)c3cccnc32)c(N)n1 | > 10 | – | > 10 |
| Cn1c(-c2cccc(Cl)c2)cc2c(Cl)nc(N)nc21 | > 10 | – | > 10 |
| Nc1nc(N)c(-c2c[nH]c3ccccc23)c(C2CC2)n1 | 2.5 | 2.9 | 0.91 |
